The values that follow come from PubChem BioAssay AID330 (DTP/NCI, 2004).

For this assay, the system named is P388 leukemia ip, CD2F1 mice, survival T/C. Briefly: NCI In Vivo Anticancer Drug Screen. Data for tumor model P388 Leukemia (intraperitoneal) in CD2F1 (CDF1) mice. To be noted: endpoint: median survival time, higher = longer survival. The method, boiled down:
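Mice carrying the transplanted tumor received test compound or vehicle. Survival was recorded in each group, and the value is the treated-group measurement divided by that of the vehicle-treated control group.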

The mark [1] stands for this setting: dose: 50.0 mg/kg/injection, schedule: Q01DX005 (ip), vehicle: Klucel (hydroxypropylcellulose) (HPC).
Where [2] appears, read: dose: 100.0 mg/kg/injection, schedule: Q01DX005 (ip), vehicle: Klucel (hydroxypropylcellulose) (HPC).
The mark [3] stands for this setting: dose: 200.0 mg/kg/injection, schedule: Q01DX005 (ip), vehicle: Klucel (hydroxypropylcellulose) (HPC).
The mark [4] stands for this setting: dose: 50.0 mg/kg/injection, schedule: Q01DX005 (ip), vehicle: saline with Tween-80.
The mark [5] stands for this setting: dose: 100.0 mg/kg/injection, schedule: Q01DX005 (ip), vehicle: saline with Tween-80.
Setting [6] is: dose: 200.0 mg/kg/injection, schedule: Q01DX005 (ip), vehicle: saline with Tween-80.
Where [7] appears, read: dose: 50.0 mg/kg/injection, schedule: Q01DX009 (ip), vehicle: saline with Tween-80.
[8] abbreviates: dose: 100.0 mg/kg/injection, schedule: Q01DX009 (ip), vehicle: saline with Tween-80.
Where [9] appears, read: dose: 50.0 mg/kg/injection, schedule: Q01DX009 (ip), vehicle: Klucel (hydroxypropylcellulose) (HPC).
Where [10] appears, read: dose: 100.0 mg/kg/injection, schedule: Q04DX003 (ip), vehicle: saline with Tween-80.
[11] abbreviates: dose: 200.0 mg/kg/injection, schedule: Q04DX003 (ip), vehicle: saline with Tween-80.

“And” between values parts separate entries of the source, which are not always exact repeats. Equal values may be shown once. Toxic doses and inconclusive results are not listed.

For `Cc1c(C)c(C)c(S(=O)(=O)NCCNS(=O)(=O)c2c(C)c(C)c(C)c(C)c2C)c(C)c1C`, the T/C runs as follows: under setting [1], 103 % of control; under setting [2], 94 % of control; under setting [3], 93 % of control.

Take `O=C(Nc1ccc(NC(=O)c2ccc(C3=NCCCN3)cc2)cc1)c1ccc(C2=NCCCN2)cc1`: the T/C is 168 % of control (dose: 12.5 mg/kg/injection, schedule: Q01DX009 (ip), vehicle: saline); 118 % of control (dose: 12.5 mg/kg/injection, schedule: Q04DX003 (ip), vehicle: saline with Tween-80); 250 % of control (dose: 25.0 mg/kg/injection, schedule: Q01DX009 (ip), vehicle: saline); 163 % of control (dose: 50.0 mg/kg/injection, schedule: Q01DX009 (ip), vehicle: saline).

Take `CCCC(C)N(CCCNc1cc(OC)cc2cccnc12)CC(C)C` (stereo not given): the T/C was 100 % of control (dose: 12.5 mg/kg/injection, schedule: Q01DX005 (ip), vehicle: saline); 107 % of control (dose: 25.0 mg/kg/injection, schedule: Q01DX005 (ip), vehicle: saline); 96 % of control under setting [4]; 94 % of control (dose: 50.0 mg/kg/injection, schedule: Q01DX005 (ip), vehicle: saline).

Regarding `CC(=O)NC1=NN(C(C)=O)C(C)(c2ccccc2)S1=O` (stereo not given), the T/C was 103 % of control under setting [4], 107 % of control under setting [5] and 101 % of control under setting [6].

For `O=C1OC2=C(CCc3nc(-c4ccccc4)sc32)C(N(c2ccccc2)c2ccccc2)C1(Cl)Cl` (stereo not given), the T/C is, setting by setting: under setting [1], 96 % of control; under setting [2], 90 % of control; under setting [3], 86 % of control.

Regarding `COc1ccc(OC)c(NC2=C(Cl)C(=O)C(Nc3cc(OC)ccc3OC)=C(Cl)C2=O)c1`, the T/C is, setting by setting: (dose: 12.5 mg/kg/injection, schedule: Q01DX009 (ip), vehicle: saline with Tween-80) 98 % of control; (dose: 25.0 mg/kg/injection, schedule: Q01DX009 (ip), vehicle: saline with Tween-80) 97 % of control; under setting [7], 90 % of control; under setting [8], 87 % of control; (dose: 200.0 mg/kg/injection, schedule: Q01DX009 (ip), vehicle: saline with Tween-80) 91 % of control.

For the compound `CC(CCC(=O)O)(c1cc(Br)c(O)c(Br)c1)c1cc(Br)c(O)c(Br)c1`, the T/C is 100 % of control (dose: 100.0 mg/kg/injection, schedule: Q04DX003 (ip), vehicle: other); 100 % of control (dose: 200.0 mg/kg/injection, schedule: Q04DX003 (ip), vehicle: other); 100 % of control (dose: 400.0 mg/kg/injection, schedule: Q04DX003 (ip), vehicle: other).

Consider `CN(C)CC[CH2][Sn]([CH2]CCN(C)C)([CH2]CCN(C)C)[CH2]CCN(C)C`, for which the T/C by setting is: under setting [7], 105 % of control; under setting [8], 97 % of control.

Regarding `O=C1CC2COc3ccc(OCCN4CCCC4)cc3C2=NN1c1ccccc1` (stereo not given), the T/C was 103 % of control under setting [4] and 103 % of control under setting [5].

Turning to `CC(O)C(NC(=O)SCc1ccccc1)C(=O)O` (stereo not given), the T/C under setting [4] is 101 % of control, the T/C under setting [5] is 90 % of control and the T/C under setting [6] is 92 % of control.

As to `Cc1ccc(S(=O)(=O)SSC(=S)Sc2ccccc2)cc1`, the T/C is 116 % of control under setting [9]; 107 % of control (dose: 100.0 mg/kg/injection, schedule: Q01DX009 (ip), vehicle: Klucel (hydroxypropylcellulose) (HPC)); 109 % of control (dose: 200.0 mg/kg/injection, schedule: Q01DX009 (ip), vehicle: Klucel (hydroxypropylcellulose) (HPC)).

As to `Oc1ccc(O)c([P+](c2ccccc2)(c2ccccc2)c2ccccc2)c1`, the T/C under setting [7] was 111 % of control and the T/C under setting [8] was 115 % of control.

On to `O=C(O)C(O)C(O)C(O)C(O)CO.[Mn]` (stereo not given), for which the T/C under setting [7] was 113 % of control.

As to `N=C1N=Nc2nc(C3(c4nc5n(c4O)C(=N)N=N5)Cc4ccccc4C3=O)c(O)n21` (stereo not given), the T/C by setting is: (dose: 60.0 mg/kg/injection, schedule: Q01DX005 (ip), vehicle: saline) 96 % of control; (dose: 120.0 mg/kg/injection, schedule: Q01DX005 (ip), vehicle: saline) 103 % of control; (dose: 240.0 mg/kg/injection, schedule: Q01DX005 (ip), vehicle: saline) 108 % of control.

Consider `Cn1c(=O)c2c(nc(Cl)n2Cc2ccc([N+](=O)[O-])cc2)n(C)c1=O`, for which the T/C was 95 % of control (dose: 100.0 mg/kg/injection, schedule: Q04DX003 (ip), vehicle: saline); 92 % of control (dose: 200.0 mg/kg/injection, schedule: Q04DX003 (ip), vehicle: saline); 90 % of control (dose: 400.0 mg/kg/injection, schedule: Q04DX003 (ip), vehicle: saline).

For the compound `Cc1n(-c2ccccc2)nn[n+]1C`, the T/C is, setting by setting: (dose: 12.5 mg/kg/injection, schedule: Q01DX009 (ip), vehicle: Klucel (hydroxypropylcellulose) (HPC)) 116 % of control and 92 % of control; (dose: 25.0 mg/kg/injection, schedule: Q01DX009 (ip), vehicle: Klucel (hydroxypropylcellulose) (HPC)) 101 % of control; under setting [9], 103 % of control and 91 % of control.

As for `CCOc1cc2c(cc1Cc1ccc(OC)cc1)OCO2`, the T/C reads like this: (dose: 50.0 mg/kg/injection, schedule: Q01DX005 (ip), vehicle: distilled water + alcohol) 108 % of control; (dose: 100.0 mg/kg/injection, schedule: Q01DX005 (ip), vehicle: distilled water + alcohol) 95 % of control; (dose: 200.0 mg/kg/injection, schedule: Q01DX005 (ip), vehicle: distilled water + alcohol) 109 % of control.

`COc1cc(/C=N/N2CC(=O)N(c3cccc(Cl)c3)CC2=O)cc(OC)c1`: the T/C was 95 % of control (dose: 7.5 mg/kg/injection, schedule: Q01DX005 (ip), vehicle: saline with Tween-80); 96 % of control (dose: 15.0 mg/kg/injection, schedule: Q01DX005 (ip), vehicle: saline with Tween-80); 94 % of control (dose: 30.0 mg/kg/injection, schedule: Q01DX005 (ip), vehicle: saline with Tween-80).

For the compound `Cc1ccc(C)c(C(O)C2CC2)c1` (stereo not given), the T/C reads like this: under setting [10], 100 % of control; under setting [11], 104 % of control.

With `C=C1C(=O)O[C@@H]2[C@H](O)[C@@H](C)[C@@H]3C=CC(=O)[C@@]3(C)[C@@H](OC(=O)/C(C)=C/C)[C@H]12`, the T/C is, setting by setting: (dose: 1.5 mg/kg/injection, schedule: Q01DX009 (ip), vehicle: saline + alcohol) 107 % of control; (dose: 6.0 mg/kg/injection, schedule: Q01DX009 (ip), vehicle: saline + alcohol) 118 % of control; (dose: 6.75 mg/kg/injection, schedule: Q01DX009 (ip), vehicle: saline + alcohol) 158 % of control; (dose: 8.75 mg/kg/injection, schedule: Q01DX009 (ip), vehicle: saline + alcohol) 120 % of control; (dose: 12.0 mg/kg/injection, schedule: Q01DX009 (ip), vehicle: saline + alcohol) 116 % of control; (dose: 12.5 mg/kg/injection, schedule: Q01DX009 (ip), vehicle: saline + alcohol) 164 % of control.

For the compound `COc1ccc2c(c1)OC(C)(C)c1c-2n(C)c2c(F)cccc2c1=O`, the T/C runs as follows: (dose: 60.0 mg/kg/injection, schedule: Q01DX005 (ip), vehicle: Klucel (hydroxypropylcellulose) (HPC)) 100 % of control; (dose: 120.0 mg/kg/injection, schedule: Q01DX005 (ip), vehicle: Klucel (hydroxypropylcellulose) (HPC)) 101 % of control; (dose: 240.0 mg/kg/injection, schedule: Q01DX005 (ip), vehicle: Klucel (hydroxypropylcellulose) (HPC)) 101 % of control.

Turning to `COc1ccc2c(c1)OC(C)(C)C(c1ccccc1)=C2c1ccc(O)c([N+](=O)[O-])c1`, the T/C under setting [4] is 100 % of control, the T/C under setting [5] was 101 % of control and the T/C under setting [6] was 102 % of control.

On to `CCN(C(=O)COc1ccc(Cl)cc1Cl)c1ccccc1C`, for which the T/C reads like this: under setting [10], 100 % of control; under setting [11], 100 % of control; (dose: 400.0 mg/kg/injection, schedule: Q04DX003 (ip), vehicle: saline with Tween-80) 100 % of control.

Regarding `CCOC(=O)N1CCN(C(=S)NNC(C)c2cccc[n+]2[O-])CC1` (stereo not given), the T/C was 99 % of control under setting [4] and 100 % of control under setting [5].

For `CCOC1Oc2ccccc2-c2nc(C)c(C#N)cc21` (stereo not given), the T/C is 90 % of control (dose: 60.0 mg/kg/injection, schedule: Q01DX005 (ip), vehicle: saline with Tween-80); 88 % of control (dose: 120.0 mg/kg/injection, schedule: Q01DX005 (ip), vehicle: saline with Tween-80); 90 % of control (dose: 240.0 mg/kg/injection, schedule: Q01DX005 (ip), vehicle: saline with Tween-80).
